According to patent US5475009A, “1, 2-dialkoxyethanes as 5-lipoxygenase inhibitors” (Abbott Laboratories, priority 1994, dated 1995):

Target: T1, 5-Lipoxygenase (Homo sapiens, UniProt P09917)
T1 construct: endogenous in cells; host or cells: human heparinized whole blood (its leukocytes)
T1 sequence (P09917 1-674): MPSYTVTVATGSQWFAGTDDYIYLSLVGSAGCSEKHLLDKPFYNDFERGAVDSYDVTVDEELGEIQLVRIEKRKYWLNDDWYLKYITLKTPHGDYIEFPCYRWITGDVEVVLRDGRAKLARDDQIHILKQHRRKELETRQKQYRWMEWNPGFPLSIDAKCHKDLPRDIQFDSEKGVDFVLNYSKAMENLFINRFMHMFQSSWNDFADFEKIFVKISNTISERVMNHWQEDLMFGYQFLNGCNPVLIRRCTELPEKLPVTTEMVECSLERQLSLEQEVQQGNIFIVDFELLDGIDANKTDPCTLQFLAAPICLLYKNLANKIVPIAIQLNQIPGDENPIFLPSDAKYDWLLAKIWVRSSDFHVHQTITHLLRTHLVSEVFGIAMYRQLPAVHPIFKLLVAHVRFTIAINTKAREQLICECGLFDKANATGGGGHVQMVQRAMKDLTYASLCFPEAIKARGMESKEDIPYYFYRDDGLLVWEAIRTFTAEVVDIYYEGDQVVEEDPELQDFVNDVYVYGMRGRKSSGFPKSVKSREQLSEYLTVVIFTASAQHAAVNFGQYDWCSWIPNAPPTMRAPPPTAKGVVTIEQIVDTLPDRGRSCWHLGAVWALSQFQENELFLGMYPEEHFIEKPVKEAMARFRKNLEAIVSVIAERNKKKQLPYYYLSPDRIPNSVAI
Test: Inhibition of calcium ionophore A23187-induced LTB4 biosynthesis in human whole blood (radioimmunoassay)
Type: cell-based
Conditions: human heparinized whole blood, 15 min preincubation, A23187 8.3 μM, 30 min, read-out: Inhibition of stimulated LTB4 formation in human whole blood (IC50 (10^-6 M)); for inhibition at 0.2 µM: @ 0.20 μM
Method: Inhibition of leukotriene biosynthesis was evaluated in an assay, involving calcium ionophore-induced LTB4 biosynthesis expressed human whole blood. Human heparinized whole blood was preincubated with test compounds or vehicle for 15 min at 37° C. followed by calcium ionophore A23187 challenge (final concentration of 8.3 μM) and the reaction terminated after 30 min by adding two volumes of methanol containing prostaglandin B2 as an internal recovery standard. The methanol extract was analyzed for LTB4 using a commercially available radioimmunoassay.
In Vitro Inhibitory Potencies of Compounds of this Invention
Against 5-Lipoxygenase from Stimulated LTB4
Formation in Human Whole Blood

SMILES | inhibition at 0.2 µM | inhibition at 0.78 µM | further results
CO/N=C(\c1cc(F)cc(OCc2ccc3ccccc3c2)c1)[C@H]1COC(C)(C)O1 [4(E oxime), E-(4S)-O-methyl-2,2-dimethyl-4-[(5-fluoro-3-(napth-2-ylmethyloxy)phenyl)oximinomethyl]-1,3-dioxolane] | 100% |  | 
CO/N=C(/c1cc(F)cc(OCc2ccc3ccccc3c2)c1)[C@H]1COC(C)(C)O1 [4(Z oxime), Z-(4S)-O-methyl-2,2-dimethyl-4-[(5-fluoro-3-(napth-2-ylmethyloxy)phenyl)oximinomethyl]-1,3-dioxolane] |  | 78% | 
CO/N=C(\c1cc(F)cc(OCc2ccc3c(ccc(=O)n3C)c2)c1)[C@H]1COC(C)(C)O1 [Example 5, E-(4S)-O-methyl-2,2-dimethyl-4-[(5-fluoro-3-(1,2-dihydro-1-methyl-2-oxoquinoline-6-ylmethyloxy)phenyl)oximinomethyl]-1,3-dioxolane] |  |  | inhibition at 0.1 µM (@ 0.10 μM): 95%
CO/N=C(/c1cc(F)cc(OCc2ccc3c(ccc(=O)n3C)c2)c1)[C@H]1COC(C)(C)O1 [Example 6, Z-(4S)-O-methyl-2,2-dimethyl-4-[(5-fluoro-3-(1,2-dihydro-1-methyl-2-oxoquinoline-6-ylmethyloxy)phenyl)oximinomethyl]-1,3-dioxolane] | 83% |  | 

More lines, main results first:

inhibition at 0.2 µM | inhibition at 0.78 µM | SMILES | further results
95% |  | COC[C@@H](OC)[C@@H](OC)c1cc(F)cc(OCc2ccc3ccccc3c2)c1 [Example 7, anti-(1S, 2R)-1-[(5-fluoro-3-(napth-2-ylmethyloxy)phenyl)]-1,2,3-trimethoxypropane] | 
 | 92% | COC[C@@H](OC)[C@H](OC)c1cc(F)cc(OCc2ccc3ccccc3c2)c1 [Example 8, syn-(1R, 2R)-1-[(5-fluoro-3-(napth-2-ylmethyloxy)phenyl)]-1,2,3-trimethoxypropane] | 
